Assay results published in ChEMBL document CHEMBL3351221, “Synthetic derivatives of aromatic abietane diterpenoids and their biological activities” (Eur J Med Chem, 2014).
Converted amounts (≈) assume the structure as drawn.

Columns and labels:
[1] = test system: Rattus norvegicus; test: Antiulcer activity in rat assessed as inhibition of secretion at 30 mg/kg, ip; type: functional; conditions: route intraperitoneal
[2] = test system: Mus musculus; test: Gastroprotective activity in mouse assessed as reduction in HCl/EtOH-induced gastric lesions at 100 mg/kg; type: functional; conditions: Stomach
[3] = test system: Rattus norvegicus; test: Antiulcer activity in rat assessed as inhibition of pepsin activity at 100 mg/kg; type: functional
[4] = test system: Fusarium oxysporum; test: Antimicrobial activity against Fusarium oxysporum assessed as inhibition of microbial growth at 50 ug/ml; type: functional
[5] = test system: HepG2; test: Cytotoxicity against human HepG2 cells; type: functional, cell-based
[6] = test system: Leishmania infantum; test: Antimicrobial activity against Leishmania infantum; type: functional, organism-based
[7] = test system: Leishmania braziliensis; test: Antimicrobial activity against Leishmania braziliensis; type: functional, organism-based
[8] = test system: Botryosphaeria berengeriana; test: Antimicrobial activity against Physalospora pyricola assessed as inhibition of microbial growth at 50 ug/ml; type: functional
[9] = target: Fibroblast growth factor receptor 1 (Homo sapiens, UniProt P11362); test: Inhibition of FGFR1 (unknown origin)
Fibroblast growth factor receptor 1, sequence (P11362 whole entry): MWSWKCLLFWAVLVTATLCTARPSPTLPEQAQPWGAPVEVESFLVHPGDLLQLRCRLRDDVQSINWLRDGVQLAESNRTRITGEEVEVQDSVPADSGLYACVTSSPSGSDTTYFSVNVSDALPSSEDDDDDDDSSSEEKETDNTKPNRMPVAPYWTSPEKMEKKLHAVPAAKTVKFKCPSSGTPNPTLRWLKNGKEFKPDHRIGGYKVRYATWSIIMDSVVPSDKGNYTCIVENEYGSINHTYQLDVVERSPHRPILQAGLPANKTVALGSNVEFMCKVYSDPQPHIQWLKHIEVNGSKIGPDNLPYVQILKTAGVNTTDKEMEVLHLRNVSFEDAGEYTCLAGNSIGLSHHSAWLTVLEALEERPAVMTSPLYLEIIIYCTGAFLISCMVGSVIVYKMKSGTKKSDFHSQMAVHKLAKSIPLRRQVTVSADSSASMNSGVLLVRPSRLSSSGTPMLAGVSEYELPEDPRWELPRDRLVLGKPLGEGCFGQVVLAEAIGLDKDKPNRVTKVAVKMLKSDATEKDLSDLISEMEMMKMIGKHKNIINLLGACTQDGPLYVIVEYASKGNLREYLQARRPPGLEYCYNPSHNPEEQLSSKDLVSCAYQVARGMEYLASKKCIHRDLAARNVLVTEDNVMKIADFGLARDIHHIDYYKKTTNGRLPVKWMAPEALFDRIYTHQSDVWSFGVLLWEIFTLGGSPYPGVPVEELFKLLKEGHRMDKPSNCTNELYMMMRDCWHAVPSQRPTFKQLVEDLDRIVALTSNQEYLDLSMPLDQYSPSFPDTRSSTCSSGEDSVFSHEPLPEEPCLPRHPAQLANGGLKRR

[10] = Cytotoxicity against human SKMES1 cells; type: functional, cell-based; conditions: SK-MES-1
[11] = test system: Escherichia coli; test: Antimicrobial activity against Escherichia coli; type: functional
[12] = test system: Pseudomonas fluorescens; test: Antimicrobial activity against Pseudomonas fluorescens; type: functional
[13] = test system: SMMC-7721; test: Cytotoxicity against human SMMC7721 cells assessed as growth inhibition at 0.1 uM; type: functional
[14] = Antioxidant activity assessed as DPPH radical scavenging activity; type: physicochemical
[15] = test system: Fusarium graminearum; test: Antimicrobial activity against Fusarium graminearum assessed as inhibition of microbial growth at 50 ug/ml; type: functional
[16] = test system: SMMC-7721; test: Cytotoxicity against human SMMC7721 cells; type: functional, cell-based
[17] = Cytotoxicity against human HL60 cells; type: functional, cell-based; conditions: HL-60
[18] = test system: A549; test: Cytotoxicity against human A549 cells; type: functional, cell-based
[19] = Cytotoxicity against human AZ-521 cells; type: functional, cell-based
[20] = Cytotoxicity against human SKBR3 cells; type: functional, cell-based; conditions: SK-BR-3
[21] = Cytotoxicity against human PC3 cells; type: functional, cell-based; conditions: PC-3
[22] = test system: EJ; test: Cytotoxicity against human EJ cells; type: functional, cell-based; conditions: pooled result: one value given for 4 cell lines, strains, targets or settings
[23] = test system: SMMC-7721; test: Cytotoxicity against human SMMC7721 cells assessed as growth inhibition at 0.1 uM after 72 hrs; type: functional; conditions: SMMC-7721, 72 h
[24] = test system: Staphylococcus aureus; test: Antimicrobial activity against Staphylococcus aureus; type: functional
[25] = test system: Bacillus subtilis; test: Antimicrobial activity against Bacillus subtilis; type: functional
[26] = Cytotoxicity against human Hey-1B cells; type: functional, cell-based
[27] = target: Androgen receptor (Homo sapiens, UniProt P10275); test: Binding affinity to androgen receptor (unknown origin)
Androgen receptor, sequence (P10275 whole entry): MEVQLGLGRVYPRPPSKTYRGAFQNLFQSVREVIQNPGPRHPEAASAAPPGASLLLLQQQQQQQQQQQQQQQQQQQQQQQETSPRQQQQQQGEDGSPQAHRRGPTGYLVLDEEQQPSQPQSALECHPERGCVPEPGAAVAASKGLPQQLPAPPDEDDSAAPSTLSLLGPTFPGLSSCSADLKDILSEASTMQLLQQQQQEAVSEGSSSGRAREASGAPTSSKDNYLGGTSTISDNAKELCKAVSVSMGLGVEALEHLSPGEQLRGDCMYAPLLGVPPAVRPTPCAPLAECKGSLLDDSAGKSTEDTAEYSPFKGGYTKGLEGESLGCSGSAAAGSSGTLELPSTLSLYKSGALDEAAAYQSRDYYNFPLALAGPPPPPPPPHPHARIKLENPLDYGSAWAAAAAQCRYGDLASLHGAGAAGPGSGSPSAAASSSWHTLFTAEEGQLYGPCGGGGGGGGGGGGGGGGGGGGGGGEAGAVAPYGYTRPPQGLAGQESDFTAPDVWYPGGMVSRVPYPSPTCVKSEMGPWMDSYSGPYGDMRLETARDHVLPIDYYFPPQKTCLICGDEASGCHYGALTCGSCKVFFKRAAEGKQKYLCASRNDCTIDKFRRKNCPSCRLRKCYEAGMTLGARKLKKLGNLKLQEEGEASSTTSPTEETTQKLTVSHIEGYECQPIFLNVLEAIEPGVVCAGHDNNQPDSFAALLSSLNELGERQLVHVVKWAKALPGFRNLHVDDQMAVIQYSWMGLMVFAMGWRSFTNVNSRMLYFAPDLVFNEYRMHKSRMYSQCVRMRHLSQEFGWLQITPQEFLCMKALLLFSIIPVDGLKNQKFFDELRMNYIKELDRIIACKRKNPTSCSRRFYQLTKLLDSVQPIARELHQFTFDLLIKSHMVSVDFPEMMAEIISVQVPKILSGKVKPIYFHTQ

[28] = test system: superoxide anion radical; test: Antioxidant activity assessed as superoxide anion radical scavenging activity relative to untreated control

## CC(C)c1ccc2c(c1)CC[C@H]1[C@](C)(C(=O)O)CCC[C@]21C [DEHYDROABIETIC ACID]
[1]
  inhibition in vivo at 30 mg/kg: 22%
[2]
  inhibition in vivo at 100 mg/kg: 59%

## CC(C)c1cc2c(cc1S(=O)(=O)[O-])[C@@]1(C)CCC[C@@](C)(C(=O)[O-])[C@@H]1CC2.[Na+].[Na+]
[3]
  inhibition (INH): 92%

## CC(C)c1ccc2c(c1)CC[C@H]1[C@](C)(c3nnc4s/c(=C\c5ccccc5)c(=O)n34)CCC[C@]21C
[4]
  inhibition at 50 µg/mL: 51.9%

## CC(C)c1cc2c(cc1[N+](=O)[O-])[C@@]1(C)CCC[C@@](C)(CNC(=O)c3ccccc3)[C@@H]1CC2=O
[5]
  IC50: 67.9 µg/mL (≈ 151 µM)

## CC(C)c1cc2c(cc1O)[C@@]1(C)CCC[C@](C)(CO)[C@@H]1CC2
[6]
  IC50: 14 µM
[7]
  IC50: 14 µM

## COC(=O)[C@@]1(C)CCC[C@]2(C)c3cc(O)c(C(C)(C)O)cc3CC[C@@H]12
[6]
  IC50: 14 µM
[7]
  IC50: 14 µM

## COc1ccc(/C=c2\sc3nnc([C@]4(C)CCC[C@]5(C)c6ccc(C(C)C)cc6CC[C@@H]45)n3c2=O)cc1
[8]
  inhibition at 50 µg/mL: 56.8%

## CC(C)c1ccc2c(c1)CC[C@H]1[C@](C)(C/N=C/c3c(O)ccc4ccccc34)CCC[C@]21C
[9]
  IC50: 1.2 µM

## CC(C)c1ccc2c(c1)CC[C@H]1[C@](C)(COC(=O)CCc3cn(-c4ccccc4)nn3)CCC[C@]21C
[10]
  IC50: 6.1 µM

## CC(C)c1ccc2c(c1)CC[C@H]1[C@](C)(C(=O)N/N=C/c3ccc(Cl)c([N+](=O)[O-])c3)CCC[C@]21C
[11]
  MIC: 3.9 µg/mL (≈ 8.09 µM)
[12]
  MIC: 3.9 µg/mL (≈ 8.09 µM)

## CC(C)c1ccc2c(c1)CC[C@H]1[C@](C)(CNC(c3ccc(C(F)(F)F)cc3)P(=O)(Oc3ccccc3)Oc3ccccc3)CCC[C@]21C (some centres not stated)
[13]
  inhibition at 0.1 µM: 79%

## O=C1O[C@H]([C@@H](O)CO)C(O)=C1O [ASCORBIC ACID]
[14]
  IC50: 236 µg/mL (≈ 1340 µM)

## CC(C)c1ccc2c(c1)CC[C@H]1[C@](C)(c3nnc4s/c(=C\c5ccc(O)cc5)c(=O)n34)CCC[C@]21C
[15]
  inhibition at 50 µg/mL: 70.9%

## CC(C)c1ccc2c(c1)CC[C@H]1[C@](C)(NC(N)=O)CCC[C@]21C
[16]
  IC50: 8.8 µM
[5]
  IC50: 1.21 µg/mL (≈ 3.85 µM)

## COC(=O)[C@H](Cc1ccc(O)cc1)NC(=O)[C@]1(C)CCC[C@]2(C)c3ccc(C(C)C)cc3CC[C@@H]12
[17]
  IC50: 2.3 µM
[18]
  IC50: 7.1 µM
[19]
  IC50: 3.9 µM
[20]
  IC50: 8.1 µM

## CC(C)c1ccc2c(c1)CC[C@H]1[C@](C)(CNC(c3ccc(F)cc3)P(=O)(Oc3ccccc3)Oc3ccccc3)CCC[C@]21C (some centres not stated)
[13]
  inhibition at 0.1 µM: 75%

## C=CC1CN2CCC1CC2C(NC(=S)NC[C@]1(C)CCC[C@]2(C)c3ccc(C(C)C)cc3CC[C@@H]12)c1ccnc2ccc(OC)cc12 (some centres not stated)
[21]
  IC50: 2.07 µM
[22]
  IC50: 2.07 µM

## CC(C)c1cc2c(cc1S(=O)(=O)O)[C@@]1(C)CCC[C@@](C)(C(=O)O)[C@@H]1CC2
[3]; Rattus norvegicus
  inhibition in vivo at 100 mg/kg: 92%

## CCOP(=O)(OCC)C(NC[C@]1(C)CCC[C@]2(C)c3ccc(C(C)C)cc3CC[C@@H]12)c1ccc([N+](=O)[O-])cc1O (some centres not stated)
[23]
  inhibition at 0.1 µM: 99%

## COC(=O)[C@@]1(C)CCC[C@]2(C)c3cc(O)c(C(C)C)cc3CC[C@@H]12
[6]
  IC50: 14 µM
[7]
  IC50: 14 µM

## COc1cc([C@@H]2c3cc4c(cc3[C@@H](O[C@@H]3O[C@@H]5CO[C@@H](C)O[C@H]5[C@H](O)[C@H]3O)[C@H]3COC(=O)[C@H]23)OCO4)cc(OC)c1O [ETOPOSIDE]
[10]
  IC50: 1.83 µM

## CC(C)c1ccc2c(c1)CC[C@H]1[C@](C)(C(=O)N/N=C/c3ccc([N+](=O)[O-])o3)CCC[C@]21C
[24]
  MIC: 1.9 µg/mL (≈ 4.34 µM)
[25]
  MIC: 1.9 µg/mL (≈ 4.34 µM)
[11]
  MIC: 3.9 µg/mL (≈ 8.91 µM)
[12]
  MIC: 3.9 µg/mL (≈ 8.91 µM)

## NCC[C@H](O)C(=O)N[C@@H]1C[C@H](N)[C@@H](O[C@H]2O[C@H](CN)[C@@H](O)[C@H](O)[C@H]2O)[C@H](O)[C@H]1O[C@H]1O[C@H](CO)[C@@H](O)[C@H](N)[C@H]1O [AMIKACIN]
[24]
  MIC: 0.9 µg/mL (≈ 1.54 µM)
[25]
  MIC: 0.9 µg/mL (≈ 1.54 µM)

## CC(C)c1ccc2c(c1)C(=O)C[C@H]1[C@](C)(CNC(=O)c3ccccc3)CCC[C@]21C
[26]
  IC50: 11.3 µg/mL (≈ 28 µM)
[21]
  IC50: 5.7 µg/mL
[27]
  IC50: 83.8 µM

## CC(C)c1ccc2c(c1)C(=O)C[C@H]1[C@](C)(CNC(=O)c3cc(O)c(O)c(O)c3)CCC[C@]21C
[14]
  IC50: 2 µg/mL (≈ 4.43 µM)
[28]
  inhibition (INH): 38.18%
